In one test the target is hα7 nAChR (Homo sapiens, UniProt P36544). In words: cell-based.
A further test addresses hα9α10 nAChR (Homo sapiens, UniProt Q9GZZ6+Q9UGM1). In words: cell-based. To be noted: for IC50: IC50, inhibition of ACh-evoked currents at hα9α10 nAChRs.
The target in the next test is hα3β2 nAChR (Homo sapiens, UniProt P17787+P32297). Put plainly: cell-based.
The next test addresses hα4β2 nAChR (Homo sapiens, UniProt P17787+P43681). The format is cell-based.
In the next test the target is hα3β4 nAChR (Homo sapiens, UniProt P30926+P32297). The format is cell-based.
Another test addresses hα4β4 nAChR (Homo sapiens, UniProt P30926+P43681). The format is cell-based.

Values joined by “and” are separate entries in the source; they are usually repeats but may differ in a detail not shown here. Equal entries are not always repeated. Where a SMILES comes first, the peptide text is derived from it. Bridges are numbered along the chain shown (N, C = ends). [ ]: non-standard residue; d: D form. Dab = NCC[C@H](N)C(=O)O; Dap = NC[C@H](N)C(=O)O

As usually defined, the IC50 is the concentration needed to halve the response being measured. A lower IC50 goes with higher potency.

Chain of hα9α10 nAChR (Q9UGM1 26-479 limits assumed): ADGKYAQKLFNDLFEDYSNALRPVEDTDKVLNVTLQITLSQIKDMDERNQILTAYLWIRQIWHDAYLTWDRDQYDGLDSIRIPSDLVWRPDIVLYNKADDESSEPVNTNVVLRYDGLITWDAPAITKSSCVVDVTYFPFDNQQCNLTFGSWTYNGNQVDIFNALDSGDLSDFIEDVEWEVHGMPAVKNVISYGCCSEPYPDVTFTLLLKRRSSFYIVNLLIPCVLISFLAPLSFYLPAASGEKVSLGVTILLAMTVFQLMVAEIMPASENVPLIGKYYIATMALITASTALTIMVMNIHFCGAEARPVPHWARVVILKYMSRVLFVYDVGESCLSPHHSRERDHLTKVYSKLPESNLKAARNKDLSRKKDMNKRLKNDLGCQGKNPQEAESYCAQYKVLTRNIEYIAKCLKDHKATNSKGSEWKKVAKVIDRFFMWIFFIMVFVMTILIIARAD
Chain of hα9α10 nAChR (Q9GZZ6 25-450 limits assumed): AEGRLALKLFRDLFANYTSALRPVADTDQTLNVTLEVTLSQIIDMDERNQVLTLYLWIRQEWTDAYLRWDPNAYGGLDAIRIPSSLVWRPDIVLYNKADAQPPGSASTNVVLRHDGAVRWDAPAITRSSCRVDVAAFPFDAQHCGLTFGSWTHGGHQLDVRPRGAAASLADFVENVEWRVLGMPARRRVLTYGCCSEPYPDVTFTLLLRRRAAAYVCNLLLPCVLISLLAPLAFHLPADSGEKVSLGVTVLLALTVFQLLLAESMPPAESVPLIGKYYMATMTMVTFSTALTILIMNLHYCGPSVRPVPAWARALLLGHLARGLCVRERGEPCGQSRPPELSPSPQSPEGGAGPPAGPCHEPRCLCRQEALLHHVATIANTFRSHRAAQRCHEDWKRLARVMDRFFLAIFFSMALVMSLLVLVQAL
Chain of hα3β2 nAChR (P32297 32-505 limits assumed): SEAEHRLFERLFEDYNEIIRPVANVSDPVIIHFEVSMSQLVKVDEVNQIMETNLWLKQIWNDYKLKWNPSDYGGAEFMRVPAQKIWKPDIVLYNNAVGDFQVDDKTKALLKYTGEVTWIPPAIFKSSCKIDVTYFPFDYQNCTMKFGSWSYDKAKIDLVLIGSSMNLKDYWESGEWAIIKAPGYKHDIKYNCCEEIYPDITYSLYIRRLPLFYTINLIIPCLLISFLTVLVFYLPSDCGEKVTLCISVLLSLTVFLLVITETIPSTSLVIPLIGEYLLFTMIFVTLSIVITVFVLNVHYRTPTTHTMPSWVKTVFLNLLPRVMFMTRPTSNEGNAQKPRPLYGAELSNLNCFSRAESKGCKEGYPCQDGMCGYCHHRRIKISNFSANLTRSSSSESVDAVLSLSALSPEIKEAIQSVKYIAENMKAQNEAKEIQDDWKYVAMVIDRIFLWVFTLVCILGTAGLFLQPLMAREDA
Chain of hα3β2 nAChR (P17787 26-502 limits assumed): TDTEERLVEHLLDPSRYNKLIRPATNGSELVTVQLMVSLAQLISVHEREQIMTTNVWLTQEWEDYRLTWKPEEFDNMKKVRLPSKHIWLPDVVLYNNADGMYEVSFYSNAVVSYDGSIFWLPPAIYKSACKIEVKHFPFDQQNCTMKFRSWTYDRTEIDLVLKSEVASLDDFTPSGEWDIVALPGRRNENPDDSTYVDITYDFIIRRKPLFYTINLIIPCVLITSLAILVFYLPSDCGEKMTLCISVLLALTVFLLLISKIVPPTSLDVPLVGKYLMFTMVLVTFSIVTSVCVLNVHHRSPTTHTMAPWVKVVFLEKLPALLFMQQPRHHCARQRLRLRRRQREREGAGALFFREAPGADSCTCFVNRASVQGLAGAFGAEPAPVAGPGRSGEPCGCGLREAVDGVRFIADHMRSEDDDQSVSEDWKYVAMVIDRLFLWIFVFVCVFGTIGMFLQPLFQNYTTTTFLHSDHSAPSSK
Chain of hα4β4 nAChR (P43681 29-627 limits assumed): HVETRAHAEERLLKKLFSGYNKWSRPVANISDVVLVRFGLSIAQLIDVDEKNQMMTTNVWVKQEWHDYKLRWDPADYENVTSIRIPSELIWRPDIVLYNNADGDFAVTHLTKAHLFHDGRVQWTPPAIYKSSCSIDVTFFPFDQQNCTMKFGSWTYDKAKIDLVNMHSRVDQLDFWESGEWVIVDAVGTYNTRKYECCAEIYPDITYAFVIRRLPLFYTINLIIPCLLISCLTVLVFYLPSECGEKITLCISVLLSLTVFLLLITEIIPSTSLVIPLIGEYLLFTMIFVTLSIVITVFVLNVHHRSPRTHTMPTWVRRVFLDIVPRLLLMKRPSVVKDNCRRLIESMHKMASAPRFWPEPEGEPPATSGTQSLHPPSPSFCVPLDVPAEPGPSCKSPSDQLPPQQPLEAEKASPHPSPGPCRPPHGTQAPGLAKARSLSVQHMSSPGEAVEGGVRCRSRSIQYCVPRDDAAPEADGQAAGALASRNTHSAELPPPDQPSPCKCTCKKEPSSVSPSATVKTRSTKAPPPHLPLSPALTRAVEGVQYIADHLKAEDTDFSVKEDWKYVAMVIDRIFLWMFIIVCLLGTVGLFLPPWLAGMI
Chain of hα4β4 nAChR (P30926 22-498 limits assumed): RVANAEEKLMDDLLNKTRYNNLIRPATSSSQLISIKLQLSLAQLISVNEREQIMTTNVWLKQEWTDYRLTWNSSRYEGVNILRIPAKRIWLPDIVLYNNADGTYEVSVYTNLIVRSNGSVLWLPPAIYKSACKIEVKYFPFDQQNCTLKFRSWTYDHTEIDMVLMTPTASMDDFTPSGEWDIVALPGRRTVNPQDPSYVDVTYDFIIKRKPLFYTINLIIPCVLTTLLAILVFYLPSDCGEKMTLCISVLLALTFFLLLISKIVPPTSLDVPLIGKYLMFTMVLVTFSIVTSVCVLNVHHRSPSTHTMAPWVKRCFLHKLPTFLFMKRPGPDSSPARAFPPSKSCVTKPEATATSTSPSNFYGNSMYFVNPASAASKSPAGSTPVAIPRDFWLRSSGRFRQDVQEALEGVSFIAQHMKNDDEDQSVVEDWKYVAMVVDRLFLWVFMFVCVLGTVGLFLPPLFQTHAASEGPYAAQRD
Chain of hα4β2 nAChR (P43681 29-627 limits assumed): as the sequence (P43681 29-627 limits assumed) above
Chain of hα4β2 nAChR (P17787 26-502 limits assumed): as the sequence (P17787 26-502 limits assumed) above
Chain of hα7 nAChR (P36544 23-502 limits assumed): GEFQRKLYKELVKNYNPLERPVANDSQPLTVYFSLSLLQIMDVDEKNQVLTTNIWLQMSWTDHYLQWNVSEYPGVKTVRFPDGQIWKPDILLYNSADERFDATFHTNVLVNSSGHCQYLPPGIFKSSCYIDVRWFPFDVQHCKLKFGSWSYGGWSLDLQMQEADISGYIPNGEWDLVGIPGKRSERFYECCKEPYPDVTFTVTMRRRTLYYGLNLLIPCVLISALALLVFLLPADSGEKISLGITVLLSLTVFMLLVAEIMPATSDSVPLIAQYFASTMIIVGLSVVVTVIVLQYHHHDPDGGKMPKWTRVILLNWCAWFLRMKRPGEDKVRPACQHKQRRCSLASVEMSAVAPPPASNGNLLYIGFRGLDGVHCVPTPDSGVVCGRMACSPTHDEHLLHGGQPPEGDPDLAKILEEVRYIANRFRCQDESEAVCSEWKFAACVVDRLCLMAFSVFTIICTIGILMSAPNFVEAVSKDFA
Chain of hα3β4 nAChR (P32297 32-505 limits assumed): as the sequence (P32297 32-505 limits assumed) above
Chain of hα3β4 nAChR (P30926 22-498 limits assumed): as the sequence (P30926 22-498 limits assumed) above

As for `CC(C)C[C@@H]1NC(=O)[C@H](CCC(=O)O)NC(=O)[C@@H]2CCCN2C(=O)[C@H](Cc2c[nH]cn2)NC(=O)[C@H](CC(N)=O)NC(=O)[C@H](C(C)C)NC(=O)[C@H](CN)NC(=O)[C@@H]2CSSC[C@H](NC(=O)CN)C(=O)N[C@@H](CSSC[C@@H](C(N)=O)NC1=O)C(=O)N[C@@H](CN)C(=O)N[C@@H](Cc1c[nH]cn1)C(=O)N1CCC[C@H]1C(=O)N[C@@H](C)C(=O)N2` [PeIA[S4Dap, S9Dap]] (H-GCC[Dap]HPAC[Dap]VNHPELC-NH2; disulfide 2-8, 3-16), the results for the IC50 at hα7 nAChR, at hα9α10 nAChR and against hα3β2 nAChR were 162 nM, 0.93 nM and 32.8 nM, respectively. The “Enhancement of activity (IC50) at hα9α10 relative to PeIA” value on hα9α10 nAChR is recorded as approximately 24 fold. The “Potency at hα9α10 relative to dimeric PeIA” value at hα9α10 nAChR is listed as “approximately two-fold”.
Take `CC(C)C[C@@H]1NC(=O)[C@H](CCC(=O)O)NC(=O)[C@@H]2CCCN2C(=O)[C@H](Cc2c[nH]cn2)NC(=O)[C@H](CC(N)=O)NC(=O)[C@H](C(C)C)NC(=O)[C@H](CO)NC(=O)[C@@H]2CSSC[C@H](NC(=O)CN)C(=O)N[C@@H](CSSC[C@@H](C(N)=O)NC1=O)C(=O)N[C@@H](CCN)C(=O)N[C@@H](Cc1c[nH]cn1)C(=O)N1CCC[C@H]1C(=O)N[C@@H](C)C(=O)N2` [PeIA[S4Dab]] (H-GCC[Dab]HPACSVNHPELC-NH2; disulfide 2-8, 3-16): at hα9α10 nAChR, the “Enhancement of activity (IC50) at hα9α10 relative to PeIA” value is listed as ~ 4 fold; the IC50 is 5.32 nM and 5.3 nM.
The compound `CC(C)C[C@@H]1NC(=O)[C@H](CCC(=O)O)NC(=O)[C@@H]2CCCN2C(=O)[C@H](Cc2cnc[nH]2)NC(=O)[C@H](CC(N)=O)NC(=O)[C@H](C(C)C)NC(=O)[C@H](CO)NC(=O)[C@@H]2CSSC[C@H](NC(=O)CN)C(=O)N[C@@H](CSSC[C@@H](C(N)=O)NC1=O)C(=O)N[C@@H](CO)C(=O)N[C@@H](Cc1cnc[nH]1)C(=O)N1CCC[C@H]1C(=O)N[C@@H](C)C(=O)N2` [PeIA] (H-GCCSHPACSVNHPELC-NH2; disulfide 2-8, 3-16) returned an IC50 on hα3β2 nAChR of 59.8 nM. That is a double-digit nanomolar value.
As to `CC(C)C[C@@H]1NC(=O)[C@H](CCC(=O)O)NC(=O)[C@@H]2CCCN2C(=O)[C@H](Cc2c[nH]cn2)NC(=O)[C@H](CC(N)=O)NC(=O)[C@H](C(C)C)NC(=O)[C@H](CO)NC(=O)[C@@H]2CSSC[C@H](NC(=O)CN)C(=O)N[C@@H](CSSC[C@@H](C(N)=O)NC1=O)C(=O)N[C@@H](CN)C(=O)N[C@@H](Cc1c[nH]cn1)C(=O)N1CCC[C@H]1C(=O)N[C@@H](C)C(=O)N2` [PeIA[S4Dap]] (H-GCC[Dap]HPACSVNHPELC-NH2; disulfide 2-8, 3-16), at hα9α10 nAChR, the “Enhancement of activity (IC50) at hα9α10 relative to PeIA” value is listed as approximately 13 fold and half-maximal inhibition (IC50) was put at 1.74 nM.
For `CC(C)C[C@@H]1NC(=O)[C@H](CCC(=O)O)NC(=O)[C@@H]2CCCN2C(=O)[C@H](Cc2c[nH]cn2)NC(=O)[C@H](CC(N)=O)NC(=O)[C@H](C(C)C)NC(=O)[C@H](CO)NC(=O)[C@@H]2CSSC[C@H](NC(=O)CN)C(=O)N[C@@H](CSSC[C@@H](C(N)=O)NC1=O)C(=O)N[C@@H](CO)C(=O)N[C@@H](Cc1c[nH]cn1)C(=O)N1CCC[C@H]1C(=O)N[C@@H](C)C(=O)N2` [PeIA] (H-GCCSHPACSVNHPELC-NH2; disulfide 2-8, 3-16), the “Inhibition of ACh-evoked currents at hα4β2” value on hα4β2 nAChR is less than 1%. In addition, on hα3β4 nAChR, the “Inhibition of ACh-evoked currents at hα3β4” value is on record as less than 1%. Also, the “Inhibition of ACh-evoked currents at hα4β4” value on hα4β4 nAChR is less than 1%.
`CC(C)C[C@@H]1NC(=O)[C@H](CCC(=O)O)NC(=O)[C@@H]2CCCN2C(=O)[C@H](Cc2c[nH]cn2)NC(=O)[C@H](CC(N)=O)NC(=O)[C@H](C(C)C)NC(=O)[C@H](CN)NC(=O)[C@@H]2CSSC[C@H](NC(=O)CN)C(=O)N[C@@H](CSSC[C@@H](C(N)=O)NC1=O)C(=O)N[C@@H](CO)C(=O)N[C@@H](Cc1c[nH]cn1)C(=O)N1CCC[C@H]1C(=O)N[C@@H](C)C(=O)N2` [PeIA[S9Dap]] (H-GCCSHPAC[Dap]VNHPELC-NH2; disulfide 2-8, 3-16): on hα9α10 nAChR, the “Enhancement of activity (IC50) at hα9α10 relative to PeIA” value is listed as approximately 5 fold and the IC50 amounted to 4.67 nM.
